Assay: Antiproliferative activity against human MDR1 transfected mouse L5178Y cell line

| Structure (SMILES) | IC50 [µM] |
| --- | --- |
| COc1ccc(CCN(C)CCN2C(=O)C3C4c5ccccc5C(c5ccccc54)C3C2=O)cc1OC (stereo not drawn) | 4.23 |
| COc1ccc(CCN(C)CC#CCN2C(=O)C3C4c5ccccc5C(c5ccccc54)C3C2=O)cc1OC (stereo not drawn) | 2.55 |
| COc1ccc(CCN(C)CCCN2C(=O)C3C4c5ccccc5C(c5ccccc54)C3C2=O)cc1OC (stereo not drawn) | 5.72 |

— BindingDB's records for doi:10.1021/jm060056p (University of Bologna, 2006)
